Data from patent US12415845B2 (priority 2018, dated 2025).

Experiments:
B16-mhgp100 tumors [1] = experiment: Anti-tumor efficacy in B16 melanoma model, citrate vs potassium hydroxycitrate; type: in vivo, mice; details: T cells cultured in potassium hydroxycitrate or citrate; FIGS. 17A-17C
T cells [2] = experiment: Cytoplasmic citrate and AcCoA quantification in treated T cells; type: cell-based, mouse
Method: T cells (n=3) cultured in control or potassium hydroxycitrate conditions were collected and washed in PBS to perform the total and cytoplasmic AcCoA and citrate levels. Samples were homogenized in 1% TRITON X-100 nonionic surfactant, 20 mM Tris-HCl, pH=7.4, 150 mM NaCl on ice for 10 min (Sigma Acetyl-Coenzyme A Assay Kit—MAK039) or citrate buffer (Sigma Citrate Assay Kit—MAK057) (Sigma, St. Louis, MO) as per the directions provided in the kit. For total AcCoA quantification, pelleted cells were extracted using 80% methanol or 5% sulfo-salicylic acid with 50 μM DTT. After cell lysis, samples were deproteinized with a 10 kDa molecular weight cut-off (MWCO) spin filter prior to the assay. AcCoA concentrations were interpolated with AcCoA standards using fluorometric assay (Ex=535, Em=587) or by mass spectrometry. Citrate concentrations were interpolated with citrate standards using colorimetric assay (570 nm). […]
Cytoplasmic citrate and cytoplasmic AcCoA were quantified following treatment of cells with potassium hydroxycitrate or negative control. […]
Cytoplasmic AcCoA was quantified following treatment with a combination of potassium hydroxycitrate and 5 mM acetate, potassium hydroxycitrate only, or control (neither potassium hydroxycitrate nor acetate) (FIG. 14).

[3] = tested on: IFN-γ locus in CD8+ Pmel-1 cells; experiment: ChIP-PCR of H3K9Ac deposition at the IFN-γ locus; type: cell-based, mouse; details: vs negative control; FIG. 2C
Method: Chromatin Immunoprecipitations were performed with validated antibodies from previous literatures (Gray et al., Immunity, 46(4): 596-608 (2017); Peng et al., Science, 354(6311): 481-484 (2016)) and protocols were followed according to manufacturing instructions provided by the CHIP-IT express shearing kit (Active Motif, Carlsbad, CA). Briefly, CD8+ Pmel-1 cells were fixed with formaldehyde for 7 minutes on a rocking platform and quenched with 1× of Glycine. Cells were pelleted with phenylmethylsulfonyl fluoride (PMSF) and protein inhibition cocktail and stored at −80 prior to cell lysis. Thawed cells were suspended in ice cold lysis buffer to obtain nuclei material. Nuclei material was sheared by incubating with enzymatic cocktail for 15 minutes at 37° C. Sheared chromatin with a total of 7.5 μg/sample was incubated with protein G magnetic beads with anti-H3K27Ac (Abcam Cat #ab4729), H3k9Ac (Abcam Cat #ab4441) (Abcam, Cambridge, UK) and anti IgG at 4° C. overnight. Magnetic beads were washed with buffers to remove unbound immune complexes and eluted with 150 μl of elution buffer. […] Concentration of the ChIP DNA was measured with high sensitive DNA assay protocol on tape station to normalize the DNA. Samples were sequenced on illumina Next seq system (Illumina, San Diego, CA) with 75 bp reads in single end mode with approximately 40M reads per sample. […]

T cells [4] = experiment: Autophagy flux, GFP-mCherry-LC3b reporter, flow cytometry; type: cell-based, mouse
CD8+ Pmel-1 T cells [5] = experiment: Flow cytometry of CD62L/CD44 and IFN-γ production; type: cell-based, mouse; details: 5 mM
Method: CD8^+ T cells from Pmel-1 mice were stimulated in vitro with 1 μM hgp10025-33 peptide for 5 days and secondary restimulation was done with plate-bound anti-CD3 (1 μg/ml; BD Biosciences, Franklin Lakes, NJ) and soluble anti-CD28 (1 μg/ml; BD Biosciences) and expanded in culture medium containing 60 IU of IL-2. The conditions control/potassium hydroxycitrate (FIG. 7) were activated in the above conditions for a total of 10 days. For measuring T cell effector function, these cells were stimulated on day 10 in the indicated conditions for 5 h with anti-CD3 and -CD28 without IL-2 in the presence of brefeldin A and monesin (BD Biosciences).
(§1) For all flow cytometry experiments, T cells were stained with a fixable live/dead stain (Invitrogen, Waltham, MA) in phosphate buffered saline (PBS) followed by surface antibody staining in FACS buffer (PBS with 0.5% bovine serum albumin (BSA) and 0.1% sodium azide). For intracellular cytokine staining, cells were first stained for surface markers and later stained for intracellular molecules following fixation and permeabilization (BD CYTOFIX/CYTOPERM fixation/permeabilization solution kit). For phospho-staining, BD PHOSFLOW reagents (BD Biosciences) were used and protocols were carried out according to the manufacturer's protocols. After washing, cells were stained with phospho-antibodies purchased from Cell Signaling (Danvers, MA). […] All experiments were conducted on a BD FORTESSA flow cytometer (Becton Dickinson, Downers Grove, IL) and analyzed with FLOWJO software (TreeStar, Ashland, OR).
(§2) CD8+ Pmel-1 T cells were activated with mhgp100 peptide for 5 days in the presence of 5 mM potassium hydroxycitrate followed by secondary stimulation with anti-CD3 (1 μg/ml) and anti-CD28 (1 μg/ml) (FIG. 7A). Cells were analyzed for surface markers or intracellular cytokines on day 10.
Representative flow cytometry analysis and quantification of CD62L vs CD44 positive cells and IFN-γ+ production in T cells cultured in control or 2-hydroxy citrate (potassium hydroxycitrate (5 mM)) are shown in Table B and FIGS. 7A and 7B. […]

CD8+ Pmel-1 T cells [6] = experiment: Annexin V/PI FACS of live, apoptotic and necrotic populations; type: cell-based, mouse
Method: as §2
Representative FACS data defining the percentages of live (Annexin V−PI−), apoptotic (Annexin V+PI−) and necrotic populations (Annexin V+PI+) cultured in control or potassium hydroxycitrate are provided in Table C and FIG. 8.

T cells [7] = experiment: Acetate rescue: CD62L and IFN-γ by FACS; type: cell-based, mouse; details: control 49.4
Excerpt: as §1
T cells were treated with a combination of potassium hydroxycitrate and acetate, potassium hydroxycitrate alone, or negative control. Expression of CD62L was measured by fluorescence-activated cell sorting (FACS).
IFN-γ secretion was also measured by FACS (Table D) and quantified (FIG. 13) following treatment with control, potassium hydroxycitrate alone, or a combination of potassium hydroxycitrate and acetate.

T cells [8] = experiment: Autophagy by immunoblot, LC3II/LC3I ratio; type: cell-based, mouse; details: acetate 5 mM where present, control 0.7
Method: Ablation of autophagy was measured by immunoblot following treatment with a combination of potassium hydroxycitrate and 5 mM acetate, potassium hydroxycitrate only, or control (neither potassium hydroxycitrate nor acetate). Beta-actin was used as a control. Quantification of the autophagy flux was represented by ratio of LC3II/LC3I intensities.

[9] = tested on: transferred Ly5.1+ CD8+ T cells in mice bearing B16-mhgp100 tumors; experiment: Persistence of transferred T cells in spleen of tumor-bearing mice; type: in vivo
B16-mhgp100 tumors [10] = experiment: Anti-tumor efficacy after adoptive transfer of treated Pmel-1 T cells; type: in vivo, mice; details: FIGS. 5, 6, 11
[11] = tested on: adoptively transferred CD8+Ly5.1+ T cells; type: in vivo, mice; details: challenge with vaccinia rhgp100 1×10^7 PFU; negative control 7.8
human TIL = experiment: TNF and IL-2 expression of human TIL by FACS; type: cell-based; details: 2.5 or 5 mM, vs vehicle
Method: Human TIL were cultured without stimulation, in vehicle, or in potassium hydroxycitrate (2.5 or 5 mM). The cells were analyzed for the expression of tumor necrosis factor (TNF) and IL-2.

Human CD8+ TILs = experiment: CD62L expression of human CD8+ TILs during rapid expansion, FACS; type: cell-based; details: 5 mM
Method: Human CD8^+ TILs from various histologies were cultured in the presence or absence (control) of potassium hydroxycitrate (5 mM). In brief, TILs from fresh tumor digests were subjected with 30 ng ml^−1 OKT3 to a rapid expansion protocol (REP) using irradiated peripheral blood mononuclear cells (PBMC) grown cultured in 3,000 IU ml-1 IL-2 in RPMI 1640 and AIM-V, supplemented with 5% in-house human serum 100 μg ml^−1 streptomycin and 100 μg ml^−1 penicillin, 2 mM 1-glutamine, 10 μg ml^−1 gentamicin, for approximately 14 days.
Expression of CD62L was measured by FACS. […] Specifically, FIG. 20 presents representative FACS data for human TIL showing relatively higher expression of the lymphoid homing marker CD62L during TIL expansion for potassium hydroxycitrate cultured TILs as compared to control TILs ([…], 14% increase). FIG. 21 is a graph showing the percentages of cells (% of maximum) expressing CD62L following treatment with negative control or potassium hydroxycitrate. FIGS. 22A and 22B show the quantification of the data shown in FIG. 21 for CD45RO^+ CD62L^+ for two patient samples (Patient A and Patient B).

For `O=C(O)CC(O)(CC(=O)O)C(=O)O` [Citrate, reference compound], the “antitumor efficacy in a B16 melanoma model” value (B16-mhgp100 tumors [1]) was “but not citrate improves antitumor efficacy”.
With `O=C([O-])CC(O)(C(=O)[O-])C(O)C(=O)[O-].[K+].[K+].[K+]` (stereo not shown) [Potassium hydroxycitrate, potassium hydroxycitrate] the cytoplasmic citrate (T cells [2]; T cells treated with potassium hydroxycitrate (ACLY inhibitor) vs negative control, FIG. 2A) was “citrate accumulation”, the “cytoplasmic AcCoA” value (T cells [2]; T cells treated with potassium hydroxycitrate vs negative control, FIG. 2B) was “depletion of cytoplasmic AcCoA” and the “H3K9Ac deposition at the IFN-γ locus (ChIP-PCR quantification)” value [3] was “reduced H3K9Ac deposition”. The “percentage of mCherry positive cells which are GFP−” value (T cells [4]; flow cytometry, loss of GFP = autophagic flux, negative control 12.1) was 33.2%, the “percentage of mCherry positive cells which are GFP+” value (T cells [4]; flow cytometry, negative control 83.0) was 60.8% and the autophagy (T cells [4]; vs negative control) was “Enhanced autophagy”. The “percentage of cells CD44+ CD62L+” value (CD8+ Pmel-1 T cells [5]; day 10, negative control 3.5) was 30.7%, the “percentage of cells IFN-γ+” value (CD8+ Pmel-1 T cells [5]; day 10, negative control 59.3) was 14.2% and the effector differentiation (CD8+ Pmel-1 T cells [5]; vs control) was “blockade of effector differentiation”. The “percentage of cells PI+ Annexin+ (necrotic)” value (CD8+ Pmel-1 T cells [6]; negative control 9.74) was 2.4%, the “percentage of cells PI− Annexin+ (apoptotic)” value (CD8+ Pmel-1 T cells [6]; negative control 18.1) was 1.6% and the “percentage of cells PI− Annexin− (live)” value (CD8+ Pmel-1 T cells [6]; negative control 71.0) was 95.2%. For the same compound, the cellular apoptosis (CD8+ Pmel-1 T cells [6]; vs control) was “reduced cellular apoptosis”, the “percentage of IFN-γ positive cells” value (T cells [7]) was 18.2% and the “autophagy flux, ratio of LC3II/LC3I intensities” value (T cells [8]) was 2.1. The “in vivo persistence following adoptive transfer” value ([9]; T cells cultured in potassium hydroxycitrate vs control) was “enhanced in vivo persistence”, the “percentage Ly5.1+ CD8+ T cells in spleen” value ([9]; day 7 after transfer, tumor-bearing mice, negative control 9.2) was 46.3% and the antitumor efficacy (B16-mhgp100 tumors [10]) was “improved antitumor efficacy”. For the same compound, the “% Ly5.1+ CD8+ T cells, recall response” value [11] was 25.9%, the “antitumor efficacy in a B16 melanoma model” value (B16-mhgp100 tumors [1]) was “improves antitumor efficacy” and the “poly-functionality (TNF and IL-2 expression)” value (human TIL) was “improves poly-functionality of human TIL”. For the same compound, the “CD62L expression, representative FACS data” value (Human CD8+ TILs; about 14 days REP, control 56.2, FIG. 20) was 66.6, the “expression of the lymphoid homing marker CD62L during TIL expansion” value (Human CD8+ TILs; vs control) was “maintained relatively higher expression” and the “increase of CD62L expression vs control TILs” value (Human CD8+ TILs; FIG. 20) was 14%.
